# Biological target: c-KIT (Homo sapiens, UniProt P10721)
# Experiment: c-KIT ADP-Glo biochemical assay
# Settings: class ranges
# Protocol: The inhibitory activity against c-KIT was measured using ADP-Glo assay. The percent (%) inhibition at each concentration of compound is calculated based on and relative to the luminescence signal in the Max and Min control wells contained within each assay plate. The Max control wells contain enzyme and substrate as 0% inhibition, and the Min control wells only contain substrate without enzyme as 100% inhibition. The concentrations and % inhibition values for tested compounds are plotted and the concentration of compound required for 50% inhibition (IC50) is determined with a four-parameter logistic dose response equation. The ability of the compounds in Table 1 to inhibit c-KIT was determined.
# Chain of c-KIT (P10721 26-976): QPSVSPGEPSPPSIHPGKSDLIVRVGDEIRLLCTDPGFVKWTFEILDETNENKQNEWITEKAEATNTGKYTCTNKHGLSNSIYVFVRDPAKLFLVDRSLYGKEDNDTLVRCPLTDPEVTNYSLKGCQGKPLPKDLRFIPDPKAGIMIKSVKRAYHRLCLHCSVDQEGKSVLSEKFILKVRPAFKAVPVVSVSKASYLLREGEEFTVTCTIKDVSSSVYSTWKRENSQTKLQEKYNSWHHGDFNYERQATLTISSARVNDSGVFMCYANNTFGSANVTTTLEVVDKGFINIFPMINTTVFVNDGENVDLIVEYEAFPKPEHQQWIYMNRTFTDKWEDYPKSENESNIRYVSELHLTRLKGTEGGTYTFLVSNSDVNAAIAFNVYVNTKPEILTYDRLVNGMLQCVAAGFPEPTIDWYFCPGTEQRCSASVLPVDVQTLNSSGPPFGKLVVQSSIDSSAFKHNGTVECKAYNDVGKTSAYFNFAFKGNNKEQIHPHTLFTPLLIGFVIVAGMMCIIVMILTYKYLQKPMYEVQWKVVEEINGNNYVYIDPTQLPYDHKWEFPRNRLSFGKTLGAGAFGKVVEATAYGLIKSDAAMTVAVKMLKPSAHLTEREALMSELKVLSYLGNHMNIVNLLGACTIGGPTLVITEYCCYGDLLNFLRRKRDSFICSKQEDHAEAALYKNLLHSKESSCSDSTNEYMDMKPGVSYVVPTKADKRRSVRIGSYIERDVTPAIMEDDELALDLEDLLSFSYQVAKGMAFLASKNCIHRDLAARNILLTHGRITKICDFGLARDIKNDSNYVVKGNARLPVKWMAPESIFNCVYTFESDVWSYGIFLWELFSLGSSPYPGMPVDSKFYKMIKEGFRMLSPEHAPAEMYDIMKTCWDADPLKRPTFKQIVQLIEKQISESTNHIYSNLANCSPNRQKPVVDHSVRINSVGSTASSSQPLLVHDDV
row,SMILES,IC50 [nM]
1,"Cc1c(F)cc(-c2noc(C3CN(C(=O)OC4CC4)C3)n2)cc1NC(=O)c1cnc2ccccn12 [Compound C031, cyclopropyl 3-(3-(3-fluoro-5-(imidazo[1,2-a]pyridine-3-carboxamido)-4-methylphenyl)-1,2,4-oxadiazol-5-yl)azetidine-1-carboxylate]",1000 to 20000
2,"CNC(=O)N1CC(c2nc(-c3cc(F)c(C)c(NC(=O)c4cnc5ccccn45)c3)no2)C1 [Compound C032, N-(3-fluoro-2-methyl-5-(5-(1-(methylcarbamoyl)azetidin-3-yl)-1,2,4-oxadiazol-3-yl)phenyl)imidazo[1,2-a]pyridine-3-carboxamide]",1000 to 20000
3,"Cc1c(F)cc(-c2noc(C3CC(F)(F)C3)n2)cc1NC(=O)c1cnc2ccc(N3CCN(C)CC3)cn12 [Compound C033, N-(5-(5-(3,3-difluorocyclobutyl)-1,2,4-oxadiazol-3-yl)-3-fluoro-2-methylphenyl)-6-(4-methylpiperazin-1-yl)imidazo[1,2-a]pyridine-3-carboxamide]",100 to 1000
4,"COC(=O)N1CC(c2nc(-c3cc(F)c(C)c(NC(=O)c4cnc5cc(C#N)ccn45)c3)no2)C1 [Compound C035, methyl 3-(3-(3-(7-cyanoimidazo[1,2-a]pyridine-3-carboxamido)-5-fluoro-4-methylphenyl)-1,2,4-oxadiazol-5-yl)azetidine-1-carboxylate]",1000 to 20000
5,"COC(=O)N1CC(c2noc(-c3cc(F)c(C)c(NC(=O)c4cnc5ccccn45)c3)n2)C1 [Compound C037, methyl 3-(5-(3-fluoro-5-(imidazo[1,2-a]pyridine-3-carboxamido)-4-methylphenyl)-1,2,4-oxadiazol-3-yl)azetidine-1-carboxylate]",100 to 1000

# Continued, values first:
row,IC50 [nM],SMILES
1,100 to 1000,"COC(=O)N1CC(c2nc(-c3cc(F)c(C)c(NC(=O)c4cnc5ccc(OC)cn45)c3)no2)C1 [Compound C027, methyl 3-(3-(3-fluoro-5-(6-methoxyimidazo[1,2-a]pyridine-3-carboxamido)-4-methylphenyl)-1,2,4-oxadiazol-5-yl)azetidine-1-carboxylate]"
2,100 to 1000,"COC(=O)N1CC(c2nc(-c3cc(F)c(C)c(NC(=O)c4cnc5ccc(N6CCN(C)CC6)cn45)c3)no2)C1 [Compound C028, methyl 3-(3-(3-fluoro-4-methyl-5-(6-(4-methylpiperazin-1-yl)imidazo[1,2-a]pyridine-3-carboxamido)phenyl)-1,2,4-oxadiazol-5-yl)azetidine-1-carboxylate]"
3,≤ 100,"COC(=O)N1CC(c2nc(-c3cc(F)c(C)c(NC(=O)c4cnc5cc(OC)ccn45)c3)no2)C1 [Compound C029, methyl 3-(3-(3-fluoro-5-(7-methoxyimidazo[1,2-a]pyridine-3-carboxamido)-4-methylphenyl)-1,2,4-oxadiazol-5-yl)azetidine-1-carboxylate]"
4,100 to 1000,"COC(=O)N1CC(c2nc(-c3cc(F)c(C)c(NC(=O)c4cnc5cc(N6CCNCC6)ccn45)c3)no2)C1 [Compound C030, methyl 3-(3-(3-fluoro-4-methyl-5-(7-(piperazin-1-yl)imidazo[1,2-a]pyridine-3-carboxamido)phenyl)-1,2,4-oxadiazol-5-yl)azetidine-1-carboxylate]"
5,≤ 100,"COC(=O)N1CC(c2nc(-c3cc(F)c(C)c(NC(=O)c4cnc5ccc(N6CCN(C(C)=O)CC6)cn45)c3)no2)C1 [Compound C036, methyl 3-(3-(3-(6-(4-acetylpiperazin-1-yl)imidazo[1,2-a]pyridine-3-carboxamido)-5-fluoro-4-methylphenyl)-1,2,4-oxadiazol-5-yl)azetidine-1-carboxylate]"
6,≤ 100,"CC(=O)N1CCN(c2ccc3ncc(C(=O)Nc4cc(-c5noc(C6CC(F)(F)C6)n5)cc(F)c4C)n3c2)CC1 [Compound C038, 6-(4-acetylpiperazin-1-yl)-N-(5-(5-(3,3-difluorocyclobutyl)-1,2,4-oxadiazol-3-yl)-3-fluoro-2-methylphenyl)imidazo[1,2-a]pyridine-3-carboxamide]"
